Data: article PMC4981850 (Scientific Reports, 2016)

How the values were obtained:
[1] = target: T1, hDAT (human dopamine transporter) (Homo sapiens, UniProt Q01959); test: two-electrode voltage clamp (-60 mV), Xenopus oocytes expressing hDAT, block of transporter leak current; format: cell-based
T1 construct: gene SLC6A3

[2] = target: T1, hDAT (human dopamine transporter); test: two-electrode voltage clamp (-60 mV), Xenopus oocytes expressing hDAT, inward current; format: cell-based

T1 sequence (Q01959 whole entry): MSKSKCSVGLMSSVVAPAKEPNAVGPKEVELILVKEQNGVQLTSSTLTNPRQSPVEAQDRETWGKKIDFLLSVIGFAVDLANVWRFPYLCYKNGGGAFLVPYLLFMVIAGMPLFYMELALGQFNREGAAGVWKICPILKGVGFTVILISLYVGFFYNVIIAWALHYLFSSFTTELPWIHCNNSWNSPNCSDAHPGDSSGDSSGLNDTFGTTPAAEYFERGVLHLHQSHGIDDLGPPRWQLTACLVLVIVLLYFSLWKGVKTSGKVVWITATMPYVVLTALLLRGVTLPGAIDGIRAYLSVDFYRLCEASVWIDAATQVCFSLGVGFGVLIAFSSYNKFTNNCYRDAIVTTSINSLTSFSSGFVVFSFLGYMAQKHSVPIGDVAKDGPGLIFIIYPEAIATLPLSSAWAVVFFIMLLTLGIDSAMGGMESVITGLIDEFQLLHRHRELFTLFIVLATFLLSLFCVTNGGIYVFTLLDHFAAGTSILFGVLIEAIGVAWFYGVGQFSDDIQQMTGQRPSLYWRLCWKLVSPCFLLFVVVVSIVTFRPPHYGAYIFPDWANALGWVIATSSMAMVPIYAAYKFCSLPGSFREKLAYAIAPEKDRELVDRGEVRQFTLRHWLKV

With C[C@H]1[C@H](c2ccccc2)OCCN1C [2S,3S(+)-PDM, (2S,3S)-(+)-3,4-Dimethyl-2-phenylmorpholine] the EC50 [1] was 2.56 ± 0.82 µM.
With C[C@@H]1[C@@H](c2ccccc2)OCCN1C [2R,3R(−)-PDM, (2R,3R)-(+)-3,4-Dimethyl-2-phenylmorpholine] the EC50 [1] was ~23.5 µM.
For C[C@@H]1NCCO[C@H]1c1ccccc1 [2S,3S(+)-PM, (2S,3S)-(+)-3-Methyl-2-phenylmorpholine], the EC50 [2] was 750 ± 140 nM.
With C[C@H]1NCCO[C@@H]1c1ccccc1 [2R,3R(−)-PM, (2R,3R)-(+)-3-Methyl-2-phenylmorpholine] the EC50 [2] was 2630 ± 600 nM.
